Source: publication PMC12059368 (Biomolecules & Therapeutics, 2024)
Like-named read-outs stand apart in the source and are kept apart here.

Assays:
[1] = ref Popiolek et al., 2021; cited from earlier work
[2] = intestinal microsomes, CON, RVT, ALI
[3] = ref Bannwarth et al., 2013, Dowty et al., 2014; cited from earlier work
[4] = iv 10 mg/kg
[5] = In vitro metabolism of tofacitinib; type: in vitro ADME, rat; conditions: hepatic microsomes
in vivo = conditions: Sprague-Dawley, rat, plasma, iv, 10 mg/kg, CON rats (control)
[6] = Rat plasma protein binding of tofacitinib; type: in vitro ADME; conditions: for fraction unbound at 5 µg/mL: Sprague-Dawley, rat, plasma, Plasma protein binding
APAP-induced ALI rats = assay: Biochemical profile and tissue microscopy in APAP-induced ALI rats; type: in vivo, Sprague-Dawley rats
CYP3A1/2 = assay: Immunoblot of hepatic microsomes, CYP3A1/2; type: in vivo, rat; conditions: RVT rats
[7] = oral 20 mg/kg, ALI rats (APAP 400 mg/kg ip)
[8] = oral 20 mg/kg, ALI-RVT rats (RVT 50 mg/kg ip 1.5 h before APAP)
[9] = oral 20 mg/kg, ALI-RVT vs ALI rats
[10] = oral 20 mg/kg, CON rats (control)
[11] = oral 20 mg/kg, RVT rats (RVT 50 mg/kg ip)
[12] = ALI-RVT rats (RVT 50 mg/kg ip 1.5 h before APAP)
[13] = RVT 50 mg/kg ip, ALI-RVT vs ALI rats, plasma

## CC(=O)Nc1ccc(O)cc1 [APAP, Acetaminophen]
[1]
  Safe dose: up to 2,000 mg per day

## C[C@@H]1CCN(C(=O)CC#N)C[C@@H]1N(C)c1ncnc2[nH]ccc12 [tofacitinib, Tofacitinib]
[2]
  Vmax, Km, and CLint, comparison across the four groups: no significant differences
CON, RVT, ALI, ALI-RVT rats
  F values, comparison across the four groups: similar
[7]
  Ae0-24 h (drug excreted unchanged in urine for 24 h): 3.04 ± 1.74 % of dose
  GI24 h (drug remaining in the gastrointestinal tract at 24 h): 0.743 ± 0.917 % of dose
Oral 20 mg/kg, ALI vs CON rats
  Decrease in CLR: 76.4%
Oral 20 mg/kg, ALI vs CON rats, 20 mg/kg
  Increase in AUC: 181%
[8]
  Ae0-24 h (drug excreted unchanged in urine for 24 h): 6.41 ± 1.86 % of dose
  GI24 h (drug remaining in the gastrointestinal tract at 24 h): 0.467 ± 0.243 % of dose
[9]
  Decrease in AUC: 41.4%
  Increase in CLR: 211%
[10]
  Ae0-24 h (drug excreted unchanged in urine for 24 h): 4.72 ± 2.03 % of dose
  GI24 h (drug remaining in the gastrointestinal tract at 24 h): 0.791 ± 1.06 % of dose
[11]
  Ae0-24 h (drug excreted unchanged in urine for 24 h): 3.96 ± 2.11 % of dose
  GI24 h (drug remaining in the gastrointestinal tract at 24 h): 0.295 ± 0.0618 % of dose
oral, both CON and ALI rats
  GI24 h values: less than 0.791 % of the oral dose
[3]
  Fraction of the oral dose metabolized by hepatic CYP3A4 and CYP2C19: Approximately 70%
[4]; ALI rats (APAP 400 mg/kg ip)
  Ae0-24 h (drug excreted unchanged in urine for 24 h): 4.26 ± 2.87 % of dose
  GI24 h (drug remaining in the gastrointestinal tract at 24 h): 0.134 ± 0.0339 % of dose
[4]; ALI vs CON rats
  Increase in AUC: 207%
  Increase in terminal half-life: 113%
  Reduction in CL: 64.7%
  Reduction in CLNR: 66.1%
[4]; [12]
  Ae0-24 h (drug excreted unchanged in urine for 24 h): 9.25 ± 3.62 % of dose
  GI24 h (drug remaining in the gastrointestinal tract at 24 h): 0.115 ± 0.0493 % of dose
[4]; ALI-RVT vs ALI rats
  Increase in Ae0-24 h: 117%
  Increase in CL: 142%
  Increase in CLNR: 141%
  Increase in CLR: 398%
  Reduction in AUC: 62.0%
  Shorter terminal half-life: 38.0%
[4]; CON rats (control)
  Ae0-24 h (drug excreted unchanged in urine for 24 h): 5.30 ± 1.91 % of dose
  GI24 h (drug remaining in the gastrointestinal tract at 24 h): 0.108 ± 0.0444 % of dose
[4]; RVT rats (RVT 50 mg/kg ip)
  Ae0-24 h (drug excreted unchanged in urine for 24 h): 7.31 ± 3.12 % of dose
  GI24 h (drug remaining in the gastrointestinal tract at 24 h): 0.147 ± 0.00805 % of dose
[5]; ALI rats
  CLint lower than in CON rats: 69.6%
[5]; ALI-RVT rats
  CLint as % of CON values: 93.1%
[5]; CON, RVT, ALI, ALI-RVT
  Km values, comparison across all groups: remained consistent
In vivo
  AUC: 4070 ng·h/mL
[6]; PBS in Nanosep 10 K centrifugal filter unit (no plasma), pH 7.4
  recovery at 30 min, 5 µg/mL: 99.7 ± 2.51%
[6]; plasma of ALI rats
  fraction unbound at 5 µg/mL: 0.358
[6]; plasma of CON rats
  fraction unbound at 5 µg/mL: 0.363
[6]; plasma of RVT rats
  fraction unbound at 5 µg/mL: 0.349

## Oc1ccc(/C=C/c2cc(O)cc(O)c2)cc1 [RVT, Resveratrol]
APAP-induced ALI rats; RVT 50 mg/kg ip, ALI-RVT rats
  Liver and kidney histology: alleviated tissue damage
APAP-induced ALI rats; [13]
  Decrease in GOT: 35.1%
  Increase in total protein: 4.50%
APAP-induced ALI rats; RVT administration in ALI rats
  Glutamate oxaloacetate transaminase levels: normalized
CYP3A1/2
  CYP3A expression following RVT administration: slightly decreased
